According to ChEMBL document CHEMBL4673295 (Bioorg Med Chem, 2021):

What was measured:
[1] = Binding affinity to Escherichia coli HPPK by isothermal titration calorimetry
[2] = Inhibition of Escherichia coli HPPK incubated for 30 mins by thin layer chromatography
[3] = Binding affinity to Escherichia coli BL21 (DE3) HPPK incubated for 10 mins by fluorimetry
[4] = Binding affinity to Escherichia coli BL21 (DE3) HPPK in presence of ATP and MgCl2 by fluorimetry

CC1(C)Nc2nc(N)[nH]c(=O)c2N=C1C(=O)NCCN1CC[C@@H](SC[C@H]2O[C@@H](n3cnc4c(N)ncnc43)[C@H](O)[C@@H]2O)C[C@@H]1C(=O)O
Kd [1]: 0.19 µM | IC50 [2]: 0.38 µM

Nc1ncnc2c1ncn2[C@@H]1O[C@H](COP(=O)(O)OP(=O)(O)OP(=O)(O)O)[C@@H](O)[C@H]1O [ADENOSINE TRIPHOSPHATE]
Kd [3]: 2.6 µM

Nc1nc2c(c(=O)[nH]1)N=C(CO)CN2
Kd [4]: 0.17 µM

CC1(C)Nc2nc(N)[nH]c(=O)c2N=C1C(=O)NCCN1CC[C@@H](S(=O)(=O)C[C@H]2O[C@@H](n3cnc4c(N)ncnc43)[C@H](O)[C@@H]2O)C[C@@H]1C(=O)O
Kd [1]: 0.047 µM
